The values that follow come from patent US11926596B2, “Inhibitors of Rho associated coiled-coil containing protein kinase” (KADMON CORPORATION, LLC, priority 2017, dated 2024).

The target of assay [1] is T1, recombinant ROCK1 (amino acids 1-535) (Homo sapiens, UniProt Q13464).
T1 construct: recombinant ROCK1 (amino acids 1-535) and ROCK2; purchased ThermoFisher Scientific
Description: Z'-lyte kinase assay, ROCK1. It is filed as biochemical. The conditions noted are these: for inhibition at 3 µM / inhibition at 0.5 µM: read-out: ROCK1 % inh. How it is done: (§1) Determination of compounds ROCK inhibitory activity in vitro (Z'lyte assay): recombinant ROCK1 (amino acids 1-535) and ROCK2 (amino acids 1-552) proteins were purchased from ThermoFisher Scientific. Compounds activities were measured by Z′-lyte kinase kit (ThermoFisher Scientific) and IC50s were calculated.
(§2) Table 2, below, provides in vitro and cellular inhibition of ROCKs by compounds of the invention. Compounds activities were measured by Z′-lyte kinase kit (ThermoFisher Scientific). […] IC50s were calculated using the GraphPad Prism software with kinase activities data that were collected from points 9 serial dilution of compounds treatment. The ROCK inhibition in A7R5 cells and NIH3T3 (Acta2-Luc) cells was performed as described above.

In assay [2] the target is T2, recombinant ROCK2 (amino acids 1-552) (Homo sapiens, UniProt O75116).
T2 construct: ROCK2 (amino acids 1-552) proteins were purchased from ThermoFisher Scientific; purchased ThermoFisher Scientific
Description: Z'-lyte kinase assay, ROCK2. The conditions noted are these: for inhibition at 3 µM / inhibition at 1 µM / inhibition at 0.5 µM: read-out: ROCK2 % inh. In kind it is biochemical. The procedure: as §1, §2

For assay [3], the system named is phospho-myosin light chains (ppMlc, Thr18/Ser19) in A7R5 cells. Description: A7R5 in-cell ELISA, phospho-myosin light chain. It is filed as cell-based, rat. The following applies: for IC50 / inhibition at 10 µM / inhibition at 1 µM: Rattus norvegicus, A7R5 cells; for IC50: 1.5 h, 90 min, read-out: pMLC IC50 A7R5; for cellular ROCK inhibition compared with Comparative Example 2: phosphorylation of the ROCK target pMLC in A7R5 cells; for inhibition at 10 µM / inhibition at 1 µM: read-out: pMLC % inh A7R5. The procedure: Determination of compounds ROCK inhibitory activity in A7R5 cells: rat aortic smooth muscle cell line A7R5 cells were maintained and treated in DMEM medium with 10% of fetal bovine serum. Cells were seeded with density of 5,000 cells/well in 96-well plates for 24 hours and subsequently treated 90 min with testing compounds. Cells were then fixed and processed according to the In-Cell ELISA Colorimetric Detection Kit manual (Thermo Scientific). Cellular phospho-myosin light chains (ppMlc, Thr18/Ser19) levels were determined after treatments of DMSO control or test compounds using the In-Cell ELISA kit. The percent inhibition rate was calculated by applying the data obtained with 1 μM (or 10 μM) compound treatment to the formula, [1-(compound/DMSO)]×100%. ppMlc data obtained with 9 points 2-fold serial dilution of compounds were applied to the nonlinear regression curve fit function of the GraphPad Prism software to calculate the In cell IC50s.
A7R5 cells were treated with 9 points 2 fold serial dilution of compounds and ppMlc (T18/S19) levels were determined in order to calculate cellular IC50s of the compounds.
Two steps of measurements were adopted for pMLC/A7R5 IC50. Percent inhibition rates were calculated with a single dose (1 μM or 10 μM) compounds treatment to screen for active compounds and then cellular IC50s were measured only in compounds that have over 50% of inhibition rates.

Bounds are passed on as bounds.

T2 sequence (O75116 1-552): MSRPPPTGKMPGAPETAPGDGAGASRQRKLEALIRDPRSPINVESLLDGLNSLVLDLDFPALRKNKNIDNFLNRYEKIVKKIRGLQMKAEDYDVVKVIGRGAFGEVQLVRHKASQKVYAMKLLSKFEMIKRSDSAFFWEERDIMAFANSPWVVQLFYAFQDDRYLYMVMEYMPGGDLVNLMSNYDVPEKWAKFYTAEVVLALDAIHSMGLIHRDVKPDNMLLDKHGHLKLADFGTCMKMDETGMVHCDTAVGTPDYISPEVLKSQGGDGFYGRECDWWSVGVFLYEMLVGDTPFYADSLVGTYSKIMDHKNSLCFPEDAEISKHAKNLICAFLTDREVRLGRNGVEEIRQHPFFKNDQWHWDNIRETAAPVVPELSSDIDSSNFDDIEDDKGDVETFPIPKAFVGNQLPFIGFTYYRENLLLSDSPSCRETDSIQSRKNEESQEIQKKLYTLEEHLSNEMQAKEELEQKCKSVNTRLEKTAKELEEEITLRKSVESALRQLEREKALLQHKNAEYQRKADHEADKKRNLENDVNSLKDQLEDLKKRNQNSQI
T1 sequence (Q13464 1-535): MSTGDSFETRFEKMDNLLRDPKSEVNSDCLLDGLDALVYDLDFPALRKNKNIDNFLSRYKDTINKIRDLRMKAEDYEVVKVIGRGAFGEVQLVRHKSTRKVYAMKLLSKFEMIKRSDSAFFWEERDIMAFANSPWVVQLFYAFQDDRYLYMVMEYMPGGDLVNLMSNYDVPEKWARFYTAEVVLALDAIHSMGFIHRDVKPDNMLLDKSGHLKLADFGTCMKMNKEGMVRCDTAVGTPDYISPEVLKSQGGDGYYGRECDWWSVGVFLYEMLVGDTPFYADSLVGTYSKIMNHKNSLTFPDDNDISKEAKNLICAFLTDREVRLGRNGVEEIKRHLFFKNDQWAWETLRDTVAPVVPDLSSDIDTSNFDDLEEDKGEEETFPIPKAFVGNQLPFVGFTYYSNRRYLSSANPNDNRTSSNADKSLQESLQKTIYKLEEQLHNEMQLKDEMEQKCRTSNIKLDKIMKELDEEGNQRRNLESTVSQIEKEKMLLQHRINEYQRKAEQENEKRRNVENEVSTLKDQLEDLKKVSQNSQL

For `CC(C)NC(C(=O)Nc1ccc2[nH]ncc2c1)c1ccc(Cl)cc1` (centres unmarked) [Example 18, 2-(4-chlorophenyl)-N-(1H-indazol-5-yl)-2-(isopropylamino)acetamide], the inhibition at 3 µM in assay [1] turned out to be 89.6%. The inhibition at 3 µM in assay [2] was determined as 94.1%. Also, in assay [3], the half-inhibitory concentration (IC50) worked out at 2510 nM and the “cellular ROCK inhibition compared with Comparative Example 2” value is listed as “enhanced”.

Consider `NC(C(=O)Nc1ccc2[nH]ncc2c1)c1cccc(F)c1` (centres unmarked) [Comp6, reference compound], for which the IC50 in assay [1] was 41.3 nM; in assay [2], 41.8 nM; in assay [3] it was 6990 nM. Moreover, the inhibition at 3 µM amounted to 99% in assay [1] and 98.8% in assay [2].

With `CNC(C(=O)Nc1ccc2[nH]ncc2c1)c1ccc(OC(C)C)cc1` (centres unmarked) [Example 44, N-(1H-indazol-5-yl)-2-(4-isopropoxyphenyl)-2-(methylamino)acetamide], the IC50 in assay [2] was 455 nM. For the same molecule, the inhibition at 10 µM in assay [3] was 42%.

With `CC1NC(C(=O)Nc2ccc3[nH]ncc3c2)c2ccccc21` (centres unmarked) [Example 9, N-(1H-indazol-5-yl)-3-methylisoindoline-1-carboxamide], the inhibition at 1 µM in assay [3] amounted to 4%.

`NC(C(=O)Nc1ccc2[nH]ncc2c1)c1ccc(Cl)cc1` (centres unmarked) [Comp2, reference compound]: the inhibition at 3 µM was 92.2% in assay [1] and 97.5% in assay [2]. Besides, the IC50 in assay [3] was 4410 nM.

Consider `COc1ccc(C(NC(C)(C)C)C(=O)Nc2ccc3[nH]ncc3c2)cc1` (centres unmarked) [Example 36, 2-(tert-butylamino)-N-(1H-indazol-5-yl)-2-(4-methoxyphenyl)acetamide], for which the results for the 50% inhibitory concentration (IC50) in assay [1], in assay [2] and in assay [3] were 24.7 nM, 9.9 nM and 766 nM, respectively. Moreover, the figures for the inhibition at 3 µM in assay [1] and in assay [2] were 99% and 98.8%, respectively.

On to `NC(C(=O)Nc1ccc2[nH]ncc2c1)c1ccccc1` (centres unmarked) [Comp3, reference compound], for which the inhibition at 3 µM was determined as 91.5% in assay [1] and 97.4% in assay [2]. Besides, the IC50 in assay [3] stood at 10900 nM.

As to `O=C(Nc1ccc2[nH]ncc2c1)C1NCc2ccccc21` (centres unmarked) [Example 6, N-(1H-indazol-5-yl)isoindoline-1-carboxamide], the IC50 was 421 nM in assay [1] and more than 1000 nM in assay [2]. The inhibition at 10 µM in assay [3] was 1%.

For the molecule `CNC(C(=O)Nc1ccc2[nH]ncc2c1)c1ccc(-c2ccc(OC)cc2)cc1` (centres unmarked) [Example 45, N-(1H-indazol-5-yl)-2-(4′-methoxy-[1,1′-biphenyl]-4-yl)-2-(methylamino)acetamide], the inhibition at 1 µM in assay [2] was found to be 22%. Besides, the inhibition at 10 µM in assay [3] was 4%.

Regarding `O=C(Nc1ccc2[nH]ncc2c1)C1CCCN1` (centres unmarked) [Example 10, N-(1H-indazol-5-yl)pyrrolidine-2-carboxamide], in assay [3], the inhibition at 1 µM was determined as 1%.

For `CNC(C(=O)Nc1ccc2[nH]ncc2c1)c1ccc(F)cc1` (centres unmarked) [Example 19, 2-(4-fluorophenyl)-N-(1H-indazol-5-yl)-2-(methylamino)acetamide], the values for the IC50 in assay [1], in assay [2] and in assay [3] were 173 nM, 160 nM and 1600 nM, respectively. Moreover, the inhibition at 3 µM in assay [1] came to 21.4%; in assay [2] it was 96.6%.

For `COc1ccc(C(NC2CC2)C(=O)Nc2ccc3[nH]ncc3c2)cc1` (centres unmarked) [Example 27, 2-(cyclopropylamino)-N-(1H-indazol-5-yl)-2-(4-methoxyphenyl)acetamide], the figures for the half-maximal inhibitory concentration (IC50) in assay [1], in assay [2] and in assay [3] were 79 nM, 66 nM and 2980 nM, respectively.

Regarding `CCNC(C(=O)Nc1ccc2[nH]ncc2c1)c1ccc(Cl)cc1` (centres unmarked) [Example 17, 2-(4-chlorophenyl)-2-(ethylamino)-N-(1H-indazol-5-yl)acetamide], in assay [1], the IC50 is less than 10 nM and the inhibition at 3 µM is 93.3%. Further, in assay [2], the IC50 is 248 nM and the inhibition at 3 µM was determined as 96.3%. Besides, in assay [3], the half-inhibitory concentration (IC50) was 556 nM and the “cellular ROCK inhibition compared with Comparative Example 2” value is reported as “enhanced”.

For `CNC(C(=O)Nc1ccc2[nH]ncc2c1)c1ccc(F)c(OC)c1` (centres unmarked) [Example 48, 2-(4-fluoro-3-methoxyphenyl)-N-(1H-indazol-5-yl)-2-(methylamino)acetamide], the inhibition at 0.5 µM in assay [1] is 87%. In addition, in assay [2], the IC50 turned out to be 71 nM and the inhibition at 0.5 µM stood at 76%.

As for `O=C(Nc1ccc2[nH]ncc2c1)C1NCCc2ccccc21` (centres unmarked) [Example 5, N-(1H-indazol-5-yl)-1,2,3,4-tetrahydroisoquinoline-1-carboxamide], the IC50 in assay [1] was determined as 38 nM; in assay [2] it was 77 nM; in assay [3], 35800 nM.

For the molecule `COc1ccc(C(NC(C)C)C(=O)Nc2ccc3[nH]ncc3c2)cc1` (centres unmarked) [Example 25, N-(1H-indazol-5-yl)-2-(isopropylamino)-2-(4-methoxyphenyl)acetamide], the values for the IC50 in assay [1], in assay [2] and in assay [3] were 10.6 nM, 9.7 nM and 633 nM, respectively. The inhibition at 3 µM came to 99% in assay [1] and 98.8% in assay [2].

Consider `CCOc1ccc(C(NC)C(=O)Nc2ccc3[nH]ncc3c2)cc1` (centres unmarked) [Example 43, 2-(4-ethoxyphenyl)-N-(1H-indazol-5-yl)-2-(methylamino)acetamide], for which, in assay [2], the IC50 amounted to 73 nM and the inhibition at 1 µM came to 98%. Moreover, the inhibition at 10 µM in assay [3] came out at 4%.

For the molecule `CNC(C(=O)Nc1ccc2[nH]ncc2c1)c1ccc(-c2ccccc2F)cc1` (centres unmarked) [Example 33, 2-(2′-fluoro-[1,1′-biphenyl]-4-yl)-N-(1H-indazol-5-yl)-2-(methylamino)acetamide], in assay [2], the inhibition at 1 µM amounted to 66.5%. Besides, in assay [3], the inhibition at 10 µM is 48%.

For `CCNC(C(=O)Nc1ccc2[nH]ncc2c1)c1cccc(C)c1` (centres unmarked) [Example 49, 2-(ethylamino)-N-(1H-indazol-5-yl)-2-(m-tolyl)acetamide], in assay [1], the inhibition at 0.5 µM worked out at 88%. Also, in assay [2], the IC50 turned out to be 87 nM and the inhibition at 0.5 µM was found to be 76%.

For the molecule `CNC(C(=O)Nc1ccc2[nH]ncc2c1)c1ccccc1OC` (centres unmarked) [Example 35, N-(1H-indazol-5-yl)-2-(2-methoxyphenyl)-2-(methylamino)acetamide], the inhibition at 1 µM was determined as 71% in assay [2] and 16% in assay [3].

For `CNC(C(=O)Nc1ccc2[nH]ncc2c1)c1cccc(OC(F)(F)F)c1` (centres unmarked) [Example 50, N-(1H-indazol-5-yl)-2-(methylamino)-2-(3-(trifluoromethoxy)-phenyl)acetamide], the inhibition at 0.5 µM in assay [1] and in assay [2] was 93% each time. The IC50 in assay [2] was 21 nM.

With `O=C(Nc1ccc2[nH]ncc2c1)C1CNCc2ccccc21` (centres unmarked) [Example 8, N-(1H-indazol-5-yl)-1,2,3,4-tetrahydroisoquinoline-4-carboxamide], in assay [2], the inhibition at 1 µM was 76.7%. Also, the half-inhibitory concentration (IC50) in assay [3] amounted to 2620 nM.

Take `O=C(Nc1ccc2[nH]ncc2c1)[C@@H]1CC[C@H](c2ccccc2)N1` [Example 12, (2S,5R)-N-(1H-indazol-5-yl)-5-phenylpyrrolidine-2-carboxamide]: the inhibition at 1 µM in assay [3] was determined as 1%.

Regarding `O=C(Nc1ccc2[nH]ncc2c1)C1CCCCN1` (centres unmarked) [Example 13, N-(1H-indazol-5-yl)piperidine-2-carboxamide], the inhibition at 1 µM in assay [3] stood at 11%.

As for `Cc1ccc(C(N)C(=O)Nc2ccc3[nH]ncc3c2)cc1` (centres unmarked) [Comp5, reference compound], in assay [1], the IC50 amounted to 1310 nM and the inhibition at 3 µM stood at 99%. In assay [2], the IC50 stood at 33 nM and the inhibition at 1 µM was 96.2%.

On to `COc1cccc(C(NCCN(C)C)C(=O)Nc2ccc3[nH]ncc3c2)c1` (centres unmarked) [Example 34, 2-((2-(dimethylamino)ethyl)amino)-N-(1H-indazol-5-yl)-2-(3-methoxyphenyl)acetamide], for which the IC50 in assay [2] amounted to 438 nM. Besides, in assay [3], the inhibition at 10 µM was 49%.

Take `O=C(Nc1ccc2[nH]ncc2c1)C1CCNC1` (centres unmarked) [Example 11, N-(1H-indazol-5-yl)pyrrolidine-3-carboxamide]: in assay [3], the inhibition at 1 µM is 1%.

For the molecule `COCCNC(C(=O)Nc1ccc2[nH]ncc2c1)c1cccc(OC)c1` (centres unmarked) [Example 46, N-(1H-indazol-5-yl)-2-((2-methoxyethyl)amino)-2-(3-methoxyphenyl)acetamide], the inhibition at 1 µM in assay [2] is 67%. Also, the inhibition at 10 µM in assay [3] turned out to be 27%.
